A short description of data set [1]: Example 5 seven-day study with flavored Formulation 9: food consumption and body weight. Format: in vivo, Beagle dogs. The conditions noted are these: for more food consumed, Day 7 compared with Day −1: oral syringe, Formulation 9. As to the method:
(§1) In order to further refine the dosing regimen that would provide an appropriate blood profile of capromorelin and desired results from the perspective of increased food intake and weight gain, an additional series of experiments were conducted. In these experiments, twenty-four adult (male and female) Beagle dogs weighing approximately 9 to 13 kilograms were randomly divided into four groups. Group 1 received a placebo formulation, without any active compound, two times per day; Group 2 received a composition comprising 3 mg/kg of body weight of capromorelin one time per day; Group 3 received a composition comprising 4.5 mg/kg of body weight of capromorelin one time per day; and Group 4 received a composition comprising 3 mg/kg of body weight of capromorelin two times per day.
In particular, on the first day of dosing, Day 1, through the last day of dosing, Day 7, the compositions were orally administered (i.e., using a syringe) to the animals in a flavored formulation of the following composition: […]
In these experiments, the animals were orally administered the flavored formulation at approximately 8:00 AM and, for Group 4 only, again at 6:00 PM. The animals were fed at 10:00 AM beginning seven days prior to Day 1 and continuing for the duration of the study. The animals were offered twice the normal amount of food. Approximately two hours after the food offering, the remainder was removed and weighed to assess food intake. This restricted feeding regime was started at Day −7 to allow the animals to transition to a normal feed intake before the study was initiated. Food consumption was calculated and recorded on Days −7 through Day 7. Baseline food consumption was calculated for each individual dog as the average number of grams of food consumed on Days −3, −2, and −1. The study period food consumption was calculated for each individual dog as the average of Days 1 through 7. Body weights were collected on Days −1, 3, and 7. Blood was collected for measurements of capromorelin, growth hormone, cortisol, and IGF-1 concentrations on Days 1, 4, and 7 at about 15 minutes pre-administration, immediately prior to dosing (0 minutes), 30, 45, 60, 90, 120, 240, 360, and/or 480 minutes post dosing via the jugular or other accessible vessel. As reflected by the data in FIGS. 61-74, the animals' response to the capromorelin-containing composition is largely in accord with the results discussed above.

A short description of data set [2]: Example 1: clinical observations / toxicological responses. Format: in vivo. The conditions noted are these: 3 mg/kg twice daily or 6 mg/kg once daily, 7 days. As to the method: (§2) During the ten day study period, on an at least once-daily basis, each of the dogs was monitored for clinical observations, mortality, morbidity, body mass, and food consumption. Serum samples were taken to measure capromorelin concentration, GH concentration, IGF-1 concentration, and cortisol concentration. Serum samples were taken on days 1, 2, 4, and 7 at −15 minutes (pre-dose), immediately prior to dosing (0 minutes) and 30, 45, 60, 90, 120, 240, 360, and/or 480 minutes post dosing. Additional blood samples were taken at 8 AM on Day 10 of the study to assess long-term impact of the active treatments.

Data set [3] is described as follows: Example 4 seven-day study once vs twice daily 3 mg/kg: food consumption and body weight. The format is in vivo, Beagle dogs. As to the method: (§3) A controlled, seven-day study was performed to assess the impact of different capromorelin-dosing regimens on the production of IGF-1, GH, and cortisol. The different capromorelin-dosing regimens were also assessed for the impact on food intake and changes in body mass.
(§4) […] were divided into one of three treatment groups, with one negative control group and two active treatment groups. Each of the three treatment groups included three males and three females. The first group received a placebo formulation (i.e., deionized water) twice per day, via oral gavage. The second group received a once-daily dose of the capromorelin composition at a concentration of 3 mg/kg, via oral gavage. The third group received a twice-daily dose of the capromorelin composition at a concentration of 3 mg/kg, via oral gavage.
(§5) During the ten day study period, on an at least once-daily basis, each of the dogs was monitored for clinical observations, mortality, moribundity, body mass, acceptability/palatability, and food consumption. Serum samples were taken to measure capromorelin concentration, GH concentration, IGF-1 concentration, and cortisol concentration. Serum samples were taken on days 1, 2, 4, and 7 at −15 minutes (pre-dose), immediately prior to dosing (0 minutes) and 30, 45, 60, 90, 120, 240, 360, and/or 480 minutes post dosing. […]

For data set [4], the system named is cortisol. The experiment in a line: Example 5: serum cortisol. Format: in vivo, Beagle dogs. The conditions noted are these: Groups 2-4; mitigated by Day 4, further reduced by Day 7. The method, then:
as §1, with “day. […]” for “day.”
In these experiments, the animals were orally administered the flavored formulation at approximately 8:00 AM and, for Group 4 only, again at 6:00 PM. […] Food consumption was calculated and recorded on Days −7 through Day 7. Baseline food consumption was calculated for each individual dog as the average number of grams of food consumed on Days −3, −2, and −1. The study period food consumption was calculated for each individual dog as the average of Days 1 through 7. […]

A short description of data set [5]: Example 1 seven-day dosing regimen study: food consumption and body weight. Format: in vivo, Beagle dogs. The method, then: (§6) A controlled, seven-day study was performed to assess the impact of different capromorelin-dosing regimens on the production of insulin-like growth factor 1 (hereinafter “IGF-1”), growth hormone (hereinafter “GH”), and cortisol. The different capromorelin-dosing regimens were also assessed for the impact on food intake and changes in body mass.
(§7) Eighteen adult non-naïve Beagle dogs (nine males and nine females) were divided into one of three treatment groups. Each of the three treatment groups included three males and three females. Group A, which was the control group, was dosed twice per day, via oral gavage, with a vehicle (deionized water alone) and was used as a baseline data point for comparison against the active treatment regimens. Group B comprised an active treatment group that received two treatments per day, via oral gavage, with a capromorelin-containing composition with a concentration of 3 mg/kg capromorelin per treatment. Finally, Group C comprised an active treatment group that received one treatment per day, via oral gavage, with a capromorelin-containing composition with a concentration of 6 mg/kg capromorelin per treatment.
as §2

The nature of data set [6]: Example 4: capromorelin concentration in serum. The format is in vivo. As to conditions: Days 1 and 7, 3 mg/kg once or twice daily. As to the method:
as §3, §4, §5

Data set [7] in a line: Example 1: capromorelin concentration in serum. Format: in vivo. The method, then: as §6, §7, §2
Data set [8] in a line: Example 12: food consumption. Format: in vivo, cats. As to conditions: IV 0.75 mg/kg or oral 3 mg/kg, short treatment. As to the method:
Similar to some of the other pharmacokinetic analyses conducted in dogs and cats, an additional pharmacokinetic study was conducted in cats to assess capromorelin formulations that allow sufficient drug to circulate to produce appetite stimulation and to define the capromorelin pharmacokinetic profile in cats. Briefly, twelve cats were randomized into Group 1 (six cats) and Group 2 (six cats). Group 1 received an intravenous formulation that included 0.75 mg/kg of capromorelin dissolved in sterile water and Group 2 received a previously tested formulation via oral gavage. Food consumption was determined daily for all cats. Specifically, animals were offered feed at approximately 11:00 AM, with the removal of feed at approximately 3:00 PM. Upon removal of feed, the amount consumed was calculated.

The mark [9] stands for this setting: oral gavage, once-daily 6 mg/kg or twice-daily 3 mg/kg, 7 days.
Where [10] appears, read: Days 1 and 7, 3 mg/kg twice daily or 6 mg/kg once daily oral gavage.

Molecules are shown by their SMILES.

On to `CN1N=C2CCN(C(=O)[C@@H](COCc3ccccc3)NC(=O)C(C)(C)N)C[C@@]2(Cc2ccccc2)C1=O.O=C(O)C(O)C(O)C(=O)O` [capromorelin], for which the “Comparison of Weight on Day −1 to Weight on Day 7 (X ± SD, %)” value stood at 4.52 ± 1.67% in data set [1] (Group 2, 3 mg/kg 1x per day); 3.78 ± 2.93% in data set [1] (Group 3, 4.5 mg/kg 1x per day); 4.17 ± 1.35% in data set [1] (Group 4, 3 mg/kg 2x per day). For the same molecule, the “more food consumed, Day 7 compared with Day −1” value in data set [1] (Group 2, 3 mg/kg one time per day) came out at 42.7%; in data set [1] (Group 3, 4.5 mg/kg one time per day), 34.5%; in data set [1] (Group 4, 3 mg/kg two times per day) it was 31.5%. Besides, in data set [2], the toxicological responses result is given as “no toxicological responses were noted”. The “weight loss over the course of the experiment” value in data set [3] (once-daily 3 mg/kg oral gavage) was “did not experience weight loss or did not experience as great a weight loss as the negative control”. The “average more food consumed daily relative to the negative control” value in data set [3] (once-daily and twice-daily 3 mg/kg oral gavage, 7 days) is reported as “approximately 34%”. For the same molecule, in data set [4], the “cortisol in the serum” value is listed as “initial increase in cortisol in the serum on Day 1”. Besides, the “increase in weight over the seven day treatment period” value in data set [5] (male dogs, once-daily 6 mg/kg or twice-daily 3 mg/kg oral gavage) was 4-5%. Moreover, the “food consumed relative to dogs receiving deionized water only” value in data set [5] (setting [9]) is “consumed more food”. In data set [5] (setting [9]), the “weight gain relative to dogs receiving deionized water only” value was “gained more weight”. Moreover, the “serum capromorelin by eight hours after administration” value in data set [6] is “decreased to near undetectable levels”. Besides, the “time after dosing at which serum capromorelin begins rising” value in data set [6] is “approximately 0.5 h”. Also, the “serum capromorelin by eight hours after dosing (480 minutes)” value in data set [7] (setting [10]) is “decreased to near undetectable levels”. In addition, in data set [7] (setting [10]), the “time after dosing at which serum capromorelin concentrations spike” value is recorded as “approximately 0.5 h”. The “serum capromorelin concentration, 6 mg/kg dose relative to twice-daily 3 mg/kg dose” value in data set [7] (oral gavage) is “about 2.3 fold”. In addition, the observed food consumption entry in data set [8] is reported as “did not reveal any significant increases in food consumption”.

The values above are taken from patent publication US11090292B2, “Compositions and methods of use of an inappetance-controlling compound” (Aratana Therapeutics, Inc., priority 2012, dated 2021).
